# Values quoted from earlier work in patent publication US9913866B2, “Selective cell targeting using adenovirus and chemical dimers” (priority 2012, dated 2018).
# Key:
# FKBP and wt FRB domain = FKBP and wt FRB domain (Homo sapiens, UniProt P62942)
# [1] = target: FKBP and a mutant FRB domain (mTOR mutation T2098L) (Homo sapiens, UniProt P42345+P62942, T2098L)
# FKBP and a mutant FRB domain (mTOR mutation T2098L), sequence (P42345 2012-2144 T2098L limits assumed): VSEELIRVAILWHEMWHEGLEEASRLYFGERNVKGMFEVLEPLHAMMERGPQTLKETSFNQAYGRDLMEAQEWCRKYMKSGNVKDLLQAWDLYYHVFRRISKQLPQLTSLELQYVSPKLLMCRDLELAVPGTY
# FKBP and a mutant FRB domain (mTOR mutation T2098L), sequence (P62942 2-108 limits assumed): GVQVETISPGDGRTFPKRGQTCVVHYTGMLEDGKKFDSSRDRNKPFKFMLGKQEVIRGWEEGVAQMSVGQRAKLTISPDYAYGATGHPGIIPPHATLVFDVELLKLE
# FKBP and wt FRB domain, sequence (P62942 2-108 limits assumed): as above
compound,measurement,setting,value
CO[C@H]1[C@@H](O)[C@H](C)C[C@H](C)/C=C/C=C/C=C(\C)[C@@H](c2c[nH]c3c(C)cccc23)C[C@@H]2CC[C@@H](C)[C@@](O)(O2)C(=O)C(=O)N2CCCC[C@H]2C(=O)O[C@H]([C@H](C)C[C@@H]2CC[C@@H](O)[C@H](OC)C2)C[C@H](O)[C@H](C)/C=C(\C)[C@H]1O [AP21967],heterodimer formation,FKBP and wt FRB domain,not with the wt FRB domain
same,heterodimer formation,[1],able to form stable heterodimers
